Here are results for 2 compounds from ChEMBL document CHEMBL2321874, “Small-molecular, non-peptide, non-ATP-competitive polo-like kinase 1 (Plk1) inhibitors with a terphenyl skeleton” (Bioorg Med Chem, 2013).

Converted amounts (≈) assume the structure as drawn.

In series [1] the target is Serine/threonine-protein kinase PLK1 (Homo sapiens) (UniProt P53350). Description: Inhibition of human recombinant N-terminal GST-tagged Plk1 at 250 uM.
A short description of series [2]: Solubility of the compound. Format: physicochemical.

Serine/threonine-protein kinase PLK1 (Homo sapiens), sequence (P53350 whole entry): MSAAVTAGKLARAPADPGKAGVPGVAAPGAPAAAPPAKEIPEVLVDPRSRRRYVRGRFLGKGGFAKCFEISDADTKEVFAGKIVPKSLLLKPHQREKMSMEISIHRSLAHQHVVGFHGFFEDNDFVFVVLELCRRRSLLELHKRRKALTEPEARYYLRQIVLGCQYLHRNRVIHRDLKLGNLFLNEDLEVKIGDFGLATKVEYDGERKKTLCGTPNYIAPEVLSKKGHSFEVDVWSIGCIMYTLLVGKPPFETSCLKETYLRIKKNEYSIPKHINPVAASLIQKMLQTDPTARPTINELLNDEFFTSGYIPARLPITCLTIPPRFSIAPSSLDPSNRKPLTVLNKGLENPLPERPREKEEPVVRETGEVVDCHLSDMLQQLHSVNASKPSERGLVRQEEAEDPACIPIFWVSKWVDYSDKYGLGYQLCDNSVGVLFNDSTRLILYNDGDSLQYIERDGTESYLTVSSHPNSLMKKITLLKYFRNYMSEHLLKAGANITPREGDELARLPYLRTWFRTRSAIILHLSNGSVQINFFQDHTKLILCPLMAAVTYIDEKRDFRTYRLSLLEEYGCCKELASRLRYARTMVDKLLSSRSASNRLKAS

Consider `CNC(=O)Cc1ccc(-c2cc(C)cc(-c3ccc(CC(=O)NC)cc3)c2OCCO)cc1`, for which the inhibition (in general, the share of the control response that was lost under treatment) in series [1] turned out to be 0%. For the compound `Cc1cc(-c2ccc(C#N)cc2)c(OCCO)c(-c2ccc(C#N)cc2)c1`, in series [2], the solubility – broadly, the dissolved amount per volume that the medium holds – was determined as 100 µM (≈ 35.4 µg/mL).
